Assay results: ChEMBL document CHEMBL1150081, “Antimicrobial Agents from Tanacetum balsamita” (1995)
In brackets after ≈: the same amount, converted by molar mass.

Assays:
Format in all cases: functional
Streptococcus mutans = test: Antibacterial activity against Streptococcus mutans ATCC […] after 2 days by broth dilution method; details: 48 h
Proteus vulgaris = test: Antibacterial activity against Proteus vulgaris ATCC 13315 after 2 days by broth dilution method; details: ATCC 13315, 48 h
Staphylococcus aureus = test: Antibacterial activity against Staphylococcus aureus ATCC 12598 after 2 days by broth dilution method; details: ATCC 12598, 48 h
[1] = system: Trichophyton mentagrophytes; test: Antifungal activity against Trichophyton mentagrophytes ATCC 18748 after 5 days by broth dilution method; details: ATCC 18748, 120 h
Pseudomonas aeruginosa = test: Antibacterial activity against Pseudomonas aeruginosa ATCC 10145 after 2 days by broth dilution method; details: ATCC 10145, 48 h
Malassezia = test: Antifungal activity against Pityrosporum ovale ATCC 14521 after 3 days by broth dilution method; details: ATCC 14521, 72 h
Klebsiella aerogenes = test: Antibacterial activity against Enterobacter aerogenes ATCC 13048 after 2 days by broth dilution method; details: ATCC 13048, 48 h
[2] = system: Corynebacterium ammoniagenes; test: Antibacterial activity against Brevibacterium ammoniagenes ATCC 6872 after 2 days by broth dilution method; details: ATCC 6872, 48 h
Bacillus subtilis = test: Antibacterial activity against Bacillus subtilis ATCC 9372 after 2 days by broth dilution method; details: ATCC 9372, 48 h
Escherichia coli = test: Antibacterial activity against Escherichia coli ATCC 9637 after 2 days by broth dilution method; details: ATCC 9637, 48 h
Saccharomyces cerevisiae = test: Antifungal activity against Saccharomyces cerevisiae ATCC 7754 after 2 days by broth dilution method; details: ATCC 7754, 48 h
Cyberlindnera jadinii = test: Antifungal activity against Candida utilis ATCC 9226 after 2 days by broth dilution method; details: Williopsis jadinii, ATCC 9226, 48 h
Penicillium chrysogenum = test: Antifungal activity against Penicillium chrysogenum ATCC 10106 after 5 days by broth dilution method; details: ATCC 10106, 120 h
Cutibacterium acnes = test: Antibacterial activity against Propionibacterium acnes ATCC 11827 after 2 days by broth dilution method; details: ATCC 11827, 48 h

Row | Structure (SMILES) | MIC (Streptococcus mutans) [µg/mL] | MIC (Proteus vulgaris) [µg/mL] | MIC (Staphylococcus aureus) [µg/mL] | MIC [1] [µg/mL] | MIC (Pseudomonas aeruginosa) [µg/mL] | MIC (Malassezia) [µg/mL] | MIC (Klebsiella aerogenes) [µg/mL] | MIC [2] [µg/mL] | MIC (Bacillus subtilis) [µg/mL] | MIC (Escherichia coli) [µg/mL] | MIC (Saccharomyces cerevisiae) [µg/mL] | MIC (Cyberlindnera jadinii) [µg/mL] | MIC (Penicillium chrysogenum) [µg/mL] | MIC (Cutibacterium acnes) [µg/mL]
1 | CCCCCC/C=C/C=O [2-NONENAL] | 100 (≈ 713 µM) | 25 (≈ 178 µM) | 50 (≈ 357 µM) | 12.5 (≈ 89.1 µM) | > 800 | 25 (≈ 178 µM) | 200 (≈ 1430 µM) | 100 (≈ 713 µM) | 50 (≈ 357 µM) | 200 (≈ 1430 µM) | 25 (≈ 178 µM) | 25 (≈ 178 µM) | 50 (≈ 357 µM) | 25 (≈ 178 µM)
2 | CC(C)=CC=O [3-METHYL-(E)-2-BUTENAL] | > 800 | 800 (≈ 9510 µM) | > 800 | 200 (≈ 2380 µM) | > 800 | 200 (≈ 2380 µM) | > 800 | > 800 | 800 (≈ 9510 µM) | > 800 | 800 (≈ 9510 µM) | 800 (≈ 9510 µM) | 50 (≈ 594 µM) | 800 (≈ 9510 µM)
3 | CCCCCC=O [HEXANAL] | > 800 | > 800 | > 800 | > 800 | > 800 | 800 (≈ 7990 µM) | > 800 | > 800 | > 800 | > 800 | > 800 | > 800 | > 800 | 800 (≈ 7990 µM)
4 | CCCCCCCC(=O)O [OCTANOIC ACID] | 1600 (≈ 11100 µM) | 200 (≈ 1390 µM) | 400 (≈ 2770 µM) | 50 (≈ 347 µM) | > 800 | 200 (≈ 1390 µM) | > 800 | 400 (≈ 2770 µM) | 200 (≈ 1390 µM) | > 800 | 200 (≈ 1390 µM) | 200 (≈ 1390 µM) | 100 (≈ 693 µM) | 200 (≈ 1390 µM)

Now from value to compound:

Row | MIC (Streptococcus mutans) [µg/mL] | MIC (Proteus vulgaris) [µg/mL] | MIC (Staphylococcus aureus) [µg/mL] | MIC [1] [µg/mL] | MIC (Pseudomonas aeruginosa) [µg/mL] | MIC (Malassezia) [µg/mL] | MIC (Klebsiella aerogenes) [µg/mL] | MIC [2] [µg/mL] | MIC (Bacillus subtilis) [µg/mL] | MIC (Escherichia coli) [µg/mL] | MIC (Saccharomyces cerevisiae) [µg/mL] | MIC (Cyberlindnera jadinii) [µg/mL] | MIC (Penicillium chrysogenum) [µg/mL] | MIC (Cutibacterium acnes) [µg/mL] | Structure (SMILES)
5 | > 800 | 400 (≈ 3440 µM) | > 800 | 100 (≈ 861 µM) | > 800 | 400 (≈ 3440 µM) | > 800 | 400 (≈ 3440 µM) | 200 (≈ 1720 µM) | > 800 | 400 (≈ 3440 µM) | 400 (≈ 3440 µM) | 400 (≈ 3440 µM) | 400 (≈ 3440 µM) | CCCCCC(=O)O [HEXANOATE]
6 | 100 (≈ 648 µM) | 25 (≈ 162 µM) | 25 (≈ 162 µM) | 3.13 (≈ 20.3 µM) | > 800 | 25 (≈ 162 µM) | > 800 | 50 (≈ 324 µM) | 25 (≈ 162 µM) | > 800 | 25 (≈ 162 µM) | 25 (≈ 162 µM) | 12.5 (≈ 81 µM) | 12.5 (≈ 81 µM) | CCCCCCC/C=C/C=O [TRANS-2-DECENAL]
